# In patent US20080261201A1, “Methods and compounds to alter virus infection” (priority 2006, published 2008):
# Test system: Rac1
# Experiment: HA-Rac1 incorporation into vesicular fractions of MCF-7 cells, Western blot
# Assay type: cell-based
# Conditions: IL-1β 1 ng/mL for 20 minutes
# Procedure: Buoyant density centrifugation was used for subcellular fractionation and isolation of endosomes containing Nox2 activity. Cells were washed twice with ice-cold PBS and scrapped into a 1.5 mL microfuge tube using the same buffer. The cells were pelleted and resuspended in homogenization buffer (HMB) containing 0.25 M sucrose, 20 mM HEPES pH 7.4, 1 mM EDTA, and an EDTA-free protease inhibitor cocktail. The cells were homogenized using nitrogen cavitation in a cell disruption high-pressure chamber (Parr instruments, Moline, Ill.). The pressure was raised to 650-psi for 5 minutes and released suddenly. The homogenate was centrifuged at 3000×g for 15 minutes to pellet unbroken cells, nuclei, and heavy mitochondria. The heavy mitochondrial supernatant (HMS) was bottom loaded into an iodixanol discontinuous gradient in a 12.5 mL SW41Ti ultracentrifuge tube using a previously described method with modifications (Graham et al., 1994; Xia et al., 1998).
# The discontinuous gradient was composed of 1.25 mL HMB without EDTA followed by bottom loading of the following % iodixanol steps sequentially with 1.0 mL 2.5%, 1.0 mL 5%, 1.5 mL 9%, 1.5 mL 14%, 2.5 mL 19%, 1.5 mL 26%, and finally the HMS in 2 mL 32%. Iodixanol concentrations were prepared fresh using a 50% iodixanol working solution (WS) diluted with HMB without EDTA. […]
substance,measurement,value
IL-1β: interleukin used to stimulate MCF-7 cells,HA-Rac1 incorporation into crude vesicular fractions,significantly enhanced
